# Source: patent US20080045559A1, “TOCOPHEROL-MODIFIED THERAPEUTIC DRUG COMPOUNDS” (SONUS PHARMACEUTICALS, INC., priority 2003, published 2008)
# Like-named read-outs stand apart in the source and are kept apart here.
# How the values were obtained:
# Assay in all cases: In vitro cytotoxicity GI50, Example 48
# Format in all cases: cell-based
# H460 (NSCLC) = test system: H460 (NSCLC)
# HCT-116 (COLON) = conditions: Alamar Blue or Sulfarhodamine B
# Method: The study was performed using either Alamar Blue or Sulfarhodamine B assays.
# SKOV-3 (OVARIAN) = conditions: Homo sapiens, SK-OV-3, Alamar Blue or Sulfarhodamine B
smiles,measurement,setting,value
"CCc1c2c(nc3ccc(OC(C)=O)cc13)-c1cc3c(c(=O)n1C2)COC(=O)[C@@]3(CC)OC(=O)CCC(=O)Oc1c(C)c(C)c2c(c1C)CC[C@@](C)(CCC[C@H](C)CCC[C@H](C)CCCC(C)C)O2 [10-acetyl-20-VESA-SN38, 10-Acetyl-20-(d-α-tocopherolsuccinate)-7-ethyl-10-hydroxycamptothecin]",GI50,"H460 (NSCLC); Homo sapiens, NCI-H460",3.9 µM
"CCc1c2c(nc3ccc(OC(=O)CCC(=O)Oc4c(C)c(C)c5c(c4C)CC[C@@](C)(CCC[C@H](C)CCC[C@H](C)CCCC(C)C)O5)cc13)-c1cc3c(c(=O)n1C2)COC(=O)[C@@]3(CC)OC(C)=O [20-acetyl-10-VESA-SN38, 20-Acetyl-10-(d-α-tocopherolsuccinate)-7-ethyl-10-hydroxycamptothecin]",GI50,"HCT-116 (COLON); Homo sapiens, HCT-116",0.144 µM
same,GI50,"H460 (NSCLC); Homo sapiens, NCI-H460",1.26 µM
"CCc1c2c(nc3ccc(OC(=O)CC(C)CC(=O)Oc4cc(C)c5c(c4)CC[C@@](C)(CCC[C@H](C)CCC[C@H](C)CCCC(C)C)O5)cc13)-c1cc3c(c(=O)n1C2)COC(=O)[C@]3(O)CC (stereo partly shown) [δ-tocopherol-3-methylglutarate-SN38, δ-Tocopherol-3-methylglutarate-7-ethyl-10-hydroxycamptothecin]",GI50,SKOV-3 (OVARIAN),0.00148 µM
"CCc1c2c(nc3ccc(OC(=O)CCCC(=O)Oc4c(C)c(C)c5c(c4C)CC[C@@](C)(CCC[C@H](C)CCC[C@H](C)CCCC(C)C)O5)cc13)C1CC3C(COC(=O)[C@]3(O)CC)C(=O)N1C2 (stereo partly drawn) [d-α-Tocopherolglutarate-SN38, d-α-Tocopherolglutarate-7-ethyl-10-hydroxycamptothecin]",GI50,"HCT-116 (COLON); Homo sapiens, HCT-116, HCT-116",0.19 µM
"CCc1c2c(nc3ccc(OC(=O)CCC(=O)Oc4c(C)c(C)c5c(c4C)CCC(C)(CCCC(C)CCCC(C)CCCC(C)C)O5)cc13)-c1cc3c(c(=O)n1C2)COC(=O)C3(CC)OC(=O)CCC(=O)Oc1c(C)c(C)c2c(c1C)CCC(C)(CCCC(C)CCCC(C)CCCC(C)C)O2 (stereo not shown) [10,20-diVESA-SN38, 10,20-Di(tocopherol succinate) 7-Ethyl-10-hydroxycamptothecin]",GI50,HCT-116 (COLON); HCT-116,9.33 µM
same,GI50,"H460 (NSCLC); H460, Alamar Blue or Sulfarhodamine B, read-out: GI50",4.06 µM
"CCc1c2c(nc3ccc(OC(=O)CC(C)CC(=O)Oc4c(C)c(C)c5c(c4C)CC[C@@](C)(CCC[C@H](C)CCC[C@H](C)CCCC(C)C)O5)cc13)-c1cc3c(c(=O)n1C2)COC(=O)[C@]3(O)CC (stereo partly drawn) [d-α-tocopherol-3-methylglutarate-SN38, d-α-Tocopherol-3-methylglutarate-7-ethyl-10-hydroxycamptothecin]",GI50,HCT-116 (COLON); HCT-116,0.187 µM
same,GI50,"HCT-116 (COLON); Homo sapiens, HCT-116, HCT-116",0.116 µM
"CCc1c2c(nc3ccc(OC(=O)CCC(=O)Oc4cc(C)c5c(c4)CC[C@@](C)(CCC[C@H](C)CCC[C@H](C)CCCC(C)C)O5)cc13)-c1cc3c(c(=O)n1C2)COC(=O)[C@]3(O)CC [δ-tocopherol succinate-SN38, δ-Tocopherolsuccinate-7-ethyl-10-hydroxycamptothecin]",GI50,SKOV-3 (OVARIAN),0.00295 µM
